Measured values from patent US8193235B2, “Compositions and methods for establishing and maintaining stem cells in an undifferentiated state” (University of Kansas, priority 2009, dated 2012).

What was measured:
E14 cells = assay: Growth under serum free condition (N2B27 medium); type: cell-based, mouse
Protocol: Growth Under Serum Free Condition. E14 cells were maintained in serum-free N2B27 medium containing DMEM/F12 (Invitrogen), Neurobasal media (Invitrogen), B27 supplement (Invitrogen), N2 supplement (Invitrogen), BSA fraction V (Invitrogen), 2-mercaptoethanol (Sigma) and LIF/BMP4 (R&D Systems, Minneapolis, Minn.) with change of medium on alternate days and passed in every 2-4 days. For experiments with Gö6983, ˜5×10^4 E14 cells were plated on each well of a gelatin-coated 6-well plate having N2B27 medium without LIF/BMP4 and with or without 5 μM Gö6983 and cultured for 3-4 days before passing. Cells were analyzed for expression of different markers (by RT-PCR or immunofluorescence study). For experiments at clonal density, initially, E14 cells were cultured at high density in N2B27 medium with Gö6983 alone for 4 passages, then ˜200 cells were plated in each wells of a 96-well plate with Gö6983 in N2B27 and cultured for 7 more days. After 7 days, colonies were analyzed for Oct4 staining.

endothelial cells = details: Dutta, et al. (2008); cited from earlier work
p90Rsk1 (Rsk1) = assay: Phosphorylation of p90Rsk1; type: cell-based, mouse; details: Gö6983 alone
Protocol: (§1) Western Blot Analysis. Whole cell lysates were prepared in SDS-gel loading buffer and resolved by 10% PAGE. The antibodies used for this study included β-actin Clone AC-15 from Sigma; p-STAT3 (Tyr705), p-p44/42 MAPK (tyr202/tyr204), p44/42 MAPK, GSK3β, Phospho Akt (Ser473), Akt, p-NFκβ p65 (Ser536), c-Myc, p-c-Myc (Thr58/Ser62), p-p90RSK (Thr359/Ser363), RSK1, Suz12 (D39F6), and Ezh2 (AC22) from Cell Signaling Technology; STAT3 (C-20), Oct-4 (C-10), Nanog (M-149), PKC α (C-20), PKC βI (C-16), PKC βII (C-18), PKC γ (C-19), PKC δ (C-20), PKC ζ (c-20), p-PKC ζ (Thr 410)-R, p-NFκβ p65 (ser311), and RelA (p65) from Santa Cruz Biotechnology; p-LGL1/LGL2 (S650/S654), SSEA4and H3K4Me3 from Abcam; LGL2 (M06), clone 4G2 from Abnova; β-Catenin from BD Transduction Laboratories, and H3K27Me3 and H3K9Me3 from Millipore.

GSK-3α or GSK-3β = assay: GSK3 phosphorylation in mESCs; type: cell-based, mouse
Protocol: (§2) E14 ES Cell Cultures. Cells were grown in ES-IMDM media (Lonza, Walkersville, Md.) in a feeder-free condition. ES-IMDM was supplemented with 15% serum, 10^5 U/100 ml of LIF (ESGRO, Millipore, Calif.) and 0.0124% monothioglycerol (MTG; Sigma Aldrich). Cells were grown for 3-5 days with change of medium every day. For inducing differentiation in monolayer culture and to determine the effect of Gö6983 in preventing differentiation, E14 cells were cultured on gelatin-coated plastics for 8 days without LIF. Details of experiments performed at clonal-density are described herein. To maintain E14 cells with Gö6983, serum supplemented ES-IMDM was used in the presence of 5 μM Gö6983 and was passed after every 3-5 days. For all assays involving elucidation of different signaling mechanism responsible for maintenance of pluripotency, cells from a ˜70% confluent ES culture plate were washed two times with 1× phosphate-buffered saline (PBS), trypsinized and plated on a 6-well tissue culture plate and treated with or without LIF or Gö6983 or different inhibitors for ˜10 hours followed by preparation of protein lysates and RNA. The PKCζ knocked-down E14 cells that were generated in this study were maintained in serum supplemented ES-IMDM on gelatin-coated plates in the absence of Gö6983 or LIF or any other inhibitor and passed after 3-5 days. […]

RelA and LGL1/2 = assay: Phosphorylation of PKC ζ target proteins in mESCs; type: cell-based, mouse
Protocol: as §1

β-catenin = assay: Cytosolic β-catenin stabilization assay; type: cell-based, mouse; details: mESCs
Protocol: Cytosolic β-Catenin Stabilization Assay. ES cells were treated with Wnt3A-conditioned medium or Gö6983 or LIF for 10 hours, and lysed hypotonically on ice with 1× TE (pH 7.4) with protease inhibitors. Lysates were centrifuged at 100,000 g at 4° C. for 45 minutes to collect and analyze cytosolic fractions.

E14 ES cells = assay: ES cell differentiation on collagen IV and with retinoic acid; type: cell-based, mouse
Source text: ES Cell Differentiation on Collagen-IV and With Retinoic Acid. To differentiate ES cells in monolayer culture on collagen IV, around 3×10^4 cells per well were transferred to collagen IV-coated 6-well plates (BD Biosciences, Franklin Lakes, N.J.) cultured for 5 days in ES differentiation medium containing DMEM (Invitrogen), 15% FBS (selected for endothelial differentiation, Stem Cell Technologies, Vancouver, BC), sodium pyruvate and L-glutamine with or without LIF and Gö6983, and were recovered by cell dissociation buffer (BD Biosciences, Franklin Lakes, N.J.). For culturing multiple passages with Gö6983 on collagen-IV, the recovered cells were again plated at a density of ˜3×10^4 cells per well and cultured again for 5 days. […] For RA-induced differentiation on monolayer culture, ES cells were treated with all-trans-retinoic acid (Sigma, St. Louis, Mo.) in ethanol at a concentration of 1 μM with or without LIF and Gö6983 for 6 days followed by study of expression of pluripotency markers (by immunofluorescence or western blot or RT-PCR analysis).

ERK1/2 = ERK1/2 phosphorylation in ES cells; type: cell-based, mouse; details: Gö6983 alone
Protocol: as §2

## COc1ccc2c(c1)c(C1=C(c3c[nH]c4ccccc34)C(=O)NC1=O)cn2CCCN(C)C [Gö6983, 3-[1-[3-(dimethylamino)propyl]5-methoxy-1H-indol-3-yl]-4-(1H-indol-3-yl)-1H-pyrrole-2,5-dione]
E14 cells; N2B27 medium plus Gö6983, clonal density
  cell survival when propagated at clonal density in N2B27 medium: poor
E14 cells; N2B27 without serum, LIF, BMP4, FIG. 1C
  induction of inhibitor-of-differentiation genes: not associated with the induction of inhibitor-of-differentiation genes
E14 cells; without serum, LIF and BMP4
  undifferentiated state in N2B27 medium: could be maintained in an undifferentiated state
Endothelial cells
  angiogenic signal-induced VEGFR1 expression in endothelial cells: inhibits angiogenic signal-induced VEGFR1 expression
p90Rsk1 (Rsk1)
  phosphorylation of Rsk1: not inhibited
GSK-3α or GSK-3β
  phosphorylation of GSK-3α or GSK-3β: did not significantly change
RelA and LGL1/2
  phosphorylation of RelA and LGL1/2: impaired
β-catenin
  β-catenin stabilization: did not stabilize
E14 ES cells; ES cells maintained five passages with Gö6983, then withdrawal, FIG. 1E
  multidifferentiation potential upon withdrawal of Gö6983: readily formed EBs or differentiated on collagen IV with induction of lineage-specific gene expression
E14 ES cells; absence of LIF
  ES cell differentiation in the presence of collagen IV or retinoic acid: inhibited ES cell differentiation
E14 ES cells; quantitative RT-PCR, FIG. 1D
  lineage-specific gene expression on collagen IV: repression of lineage-specific gene expression
E14 ES cells; without LIF, up to 8 consecutive passages
  differentiation during continuous culture on collagen IV plates: without any noticeable differentiation
ERK1/2
  ERK1/2 phosphorylation: did not inhibit
